Measurements from ChEMBL document CHEMBL5653631, “A Potent and Selective ULK1 Inhibitor Suppresses Autophagy and Sensitizes Cancer Cells to Nutrient Stress” (iScience, 2018).
Each block holds one compound with its values, some of them ahead of it.

Assays:
[1] = biological target: Serine/threonine-protein kinase mTOR (Homo sapiens) (UniProt P42345); experiment: Inhibition of human recombinant FRAP at 500 nM in presence of ATP by radiometric assay relative to control
[2] = biological target: Homeodomain-interacting protein kinase 3 (Homo sapiens) (UniProt Q9H422); experiment: Inhibition of human recombinant HIPK3 at 500 nM in presence of ATP by radiometric assay relative to control
[3] = biological target: Receptor tyrosine-protein kinase erbB-2 (Homo sapiens) (UniProt P04626); experiment: Inhibition of human recombinant ErbB2 at 500 nM related to control ULK1
[4] = biological target: Mitogen-activated protein kinase kinase kinase kinase 1 (Homo sapiens) (UniProt Q92918); experiment: Inhibition of human recombinant HPK1 at 40 nM in presence of ATP by radiometric assay relative to control
[5] = biological target: Vascular endothelial growth factor receptor 2 (Homo sapiens) (UniProt P35968); experiment: Inhibition of human recombinant KDR at 40 nM in presence of ATP by radiometric assay relative to control
[6] = biological target: Protein kinase C beta type (Homo sapiens) (UniProt P05771); experiment: Inhibition of human recombinant PKCb at 40 nM in presence of ATP by radiometric assay relative to control
[7] = biological target: Cyclin-dependent kinase-like 1 (Homo sapiens) (UniProt Q00532); experiment: Inhibition of human recombinant CDKL1 at 40 nM related to control ULK1
[8] = biological target: MAP kinase-activated protein kinase 2 (Homo sapiens) (UniProt P49137); experiment: Inhibition of human recombinant MAPKAPK2 at 15 nM in presence of ATP by radiometric assay relative to control
[9] = biological target: T1, Serine/threonine-protein kinase Nek9 (Homo sapiens) (UniProt Q8TD19); experiment: Inhibition of human recombinant NEK9 at 15 nM in presence of ATP by radiometric assay relative to control
T1 sequence (whole entry): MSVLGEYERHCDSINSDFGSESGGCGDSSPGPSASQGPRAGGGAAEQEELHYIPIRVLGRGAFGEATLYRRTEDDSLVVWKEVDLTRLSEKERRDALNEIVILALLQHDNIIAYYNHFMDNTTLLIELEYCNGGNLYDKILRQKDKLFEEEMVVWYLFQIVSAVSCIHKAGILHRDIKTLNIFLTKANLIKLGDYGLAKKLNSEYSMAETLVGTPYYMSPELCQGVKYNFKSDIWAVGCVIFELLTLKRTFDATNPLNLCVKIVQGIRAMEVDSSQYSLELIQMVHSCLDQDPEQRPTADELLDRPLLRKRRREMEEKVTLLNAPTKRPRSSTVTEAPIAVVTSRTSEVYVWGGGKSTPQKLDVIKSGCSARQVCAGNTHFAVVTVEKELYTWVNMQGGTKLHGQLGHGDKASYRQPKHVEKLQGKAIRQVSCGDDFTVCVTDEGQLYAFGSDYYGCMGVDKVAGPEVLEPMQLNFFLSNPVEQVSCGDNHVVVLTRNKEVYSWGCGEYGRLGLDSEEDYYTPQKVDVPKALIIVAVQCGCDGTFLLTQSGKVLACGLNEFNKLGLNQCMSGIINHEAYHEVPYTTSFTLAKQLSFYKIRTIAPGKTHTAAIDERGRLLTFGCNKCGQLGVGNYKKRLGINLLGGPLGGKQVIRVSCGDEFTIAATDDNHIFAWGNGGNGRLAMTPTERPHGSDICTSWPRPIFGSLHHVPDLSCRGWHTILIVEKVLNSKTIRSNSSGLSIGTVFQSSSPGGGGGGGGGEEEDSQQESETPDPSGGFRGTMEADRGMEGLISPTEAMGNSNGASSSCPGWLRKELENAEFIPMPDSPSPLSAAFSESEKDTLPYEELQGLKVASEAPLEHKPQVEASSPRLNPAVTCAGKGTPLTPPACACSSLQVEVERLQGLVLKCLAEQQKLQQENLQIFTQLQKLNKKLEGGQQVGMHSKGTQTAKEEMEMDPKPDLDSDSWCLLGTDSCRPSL

[10] = biological target: Serine/threonine-protein kinase WNK3 (Homo sapiens) (UniProt Q9BYP7); experiment: Inhibition of human recombinant Wnk3 at 15 nM in presence of ATP by radiometric assay relative to control
[11] = biological target: Cyclin-dependent kinase 2 (Homo sapiens) (UniProt P24941); experiment: Inhibition of human recombinant CDK2 at 15 nM related to control ULK1
[12] = biological target: T2, Tyrosine-protein kinase Mer (Homo sapiens) (UniProt Q12866); experiment: Inhibition of human recombinant MER at 15 nM related to control ULK1
T2 sequence (whole entry): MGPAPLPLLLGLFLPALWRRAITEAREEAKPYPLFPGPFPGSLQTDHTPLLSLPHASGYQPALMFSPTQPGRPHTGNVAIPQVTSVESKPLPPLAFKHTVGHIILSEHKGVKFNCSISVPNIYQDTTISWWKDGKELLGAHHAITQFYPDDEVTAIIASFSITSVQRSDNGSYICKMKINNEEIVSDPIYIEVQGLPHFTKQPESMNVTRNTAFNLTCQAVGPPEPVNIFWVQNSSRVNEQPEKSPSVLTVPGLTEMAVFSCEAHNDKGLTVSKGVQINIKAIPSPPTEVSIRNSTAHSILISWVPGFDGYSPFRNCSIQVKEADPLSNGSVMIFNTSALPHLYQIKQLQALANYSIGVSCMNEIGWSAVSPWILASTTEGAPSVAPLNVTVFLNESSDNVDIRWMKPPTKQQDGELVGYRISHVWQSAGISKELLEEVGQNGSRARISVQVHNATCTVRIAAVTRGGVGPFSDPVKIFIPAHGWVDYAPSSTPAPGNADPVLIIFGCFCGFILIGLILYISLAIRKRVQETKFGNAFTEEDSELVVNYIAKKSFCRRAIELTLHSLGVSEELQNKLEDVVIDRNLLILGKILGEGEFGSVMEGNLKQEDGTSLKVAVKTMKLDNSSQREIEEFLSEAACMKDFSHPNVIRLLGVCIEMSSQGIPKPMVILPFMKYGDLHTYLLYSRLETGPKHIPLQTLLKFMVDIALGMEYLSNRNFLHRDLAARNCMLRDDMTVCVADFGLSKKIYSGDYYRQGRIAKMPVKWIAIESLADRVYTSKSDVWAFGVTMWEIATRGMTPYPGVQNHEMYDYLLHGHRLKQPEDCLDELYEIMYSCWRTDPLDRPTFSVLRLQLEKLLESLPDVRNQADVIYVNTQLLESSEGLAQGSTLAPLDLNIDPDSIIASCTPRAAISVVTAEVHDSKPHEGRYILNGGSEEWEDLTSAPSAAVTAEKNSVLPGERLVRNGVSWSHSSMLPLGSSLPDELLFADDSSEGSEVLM

Homeodomain-interacting protein kinase 3 (Homo sapiens), sequence (Q9H422 whole entry, looked up): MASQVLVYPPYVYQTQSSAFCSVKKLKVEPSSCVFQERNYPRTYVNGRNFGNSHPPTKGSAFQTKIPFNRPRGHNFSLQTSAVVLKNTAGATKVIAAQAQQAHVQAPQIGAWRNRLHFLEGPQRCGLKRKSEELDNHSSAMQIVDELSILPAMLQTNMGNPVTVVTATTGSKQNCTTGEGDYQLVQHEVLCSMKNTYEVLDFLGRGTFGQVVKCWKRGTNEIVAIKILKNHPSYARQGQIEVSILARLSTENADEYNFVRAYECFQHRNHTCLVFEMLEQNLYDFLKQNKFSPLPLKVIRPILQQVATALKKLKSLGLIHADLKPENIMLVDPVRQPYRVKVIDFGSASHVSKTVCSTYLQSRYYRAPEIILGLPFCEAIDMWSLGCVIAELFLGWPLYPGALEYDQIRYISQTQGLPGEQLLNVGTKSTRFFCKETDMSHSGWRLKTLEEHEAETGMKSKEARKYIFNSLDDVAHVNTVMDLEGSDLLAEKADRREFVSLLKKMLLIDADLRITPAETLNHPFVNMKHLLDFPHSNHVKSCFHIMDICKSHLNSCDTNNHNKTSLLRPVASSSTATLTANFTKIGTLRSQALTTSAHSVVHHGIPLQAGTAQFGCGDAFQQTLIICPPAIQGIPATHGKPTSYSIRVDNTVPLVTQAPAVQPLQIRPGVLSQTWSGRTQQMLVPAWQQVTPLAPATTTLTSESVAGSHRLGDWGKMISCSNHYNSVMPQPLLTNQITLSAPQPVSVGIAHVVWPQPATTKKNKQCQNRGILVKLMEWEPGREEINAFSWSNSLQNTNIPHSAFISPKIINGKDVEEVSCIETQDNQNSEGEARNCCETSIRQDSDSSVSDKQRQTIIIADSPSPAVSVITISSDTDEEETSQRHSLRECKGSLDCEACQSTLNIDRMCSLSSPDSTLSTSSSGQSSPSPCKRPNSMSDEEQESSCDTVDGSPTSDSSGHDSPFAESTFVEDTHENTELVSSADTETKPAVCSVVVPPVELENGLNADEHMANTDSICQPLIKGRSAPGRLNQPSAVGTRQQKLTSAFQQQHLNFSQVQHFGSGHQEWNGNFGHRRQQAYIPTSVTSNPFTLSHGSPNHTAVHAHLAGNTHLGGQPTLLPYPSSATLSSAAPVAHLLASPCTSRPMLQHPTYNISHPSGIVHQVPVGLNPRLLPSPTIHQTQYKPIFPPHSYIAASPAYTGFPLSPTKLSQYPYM
Cyclin-dependent kinase-like 1 (Homo sapiens), sequence (Q00532 whole entry): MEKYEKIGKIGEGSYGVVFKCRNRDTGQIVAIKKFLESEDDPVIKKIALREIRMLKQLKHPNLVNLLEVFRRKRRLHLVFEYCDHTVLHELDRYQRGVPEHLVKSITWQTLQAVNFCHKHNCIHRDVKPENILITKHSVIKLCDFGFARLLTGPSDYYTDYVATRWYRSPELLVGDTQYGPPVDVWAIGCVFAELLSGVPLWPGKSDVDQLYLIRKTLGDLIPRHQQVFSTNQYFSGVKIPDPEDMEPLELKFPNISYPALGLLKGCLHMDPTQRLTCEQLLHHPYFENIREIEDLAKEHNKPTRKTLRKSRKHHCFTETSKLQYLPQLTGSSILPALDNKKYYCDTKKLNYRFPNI
Protein kinase C beta type (Homo sapiens), sequence (P05771 2-671 limits assumed): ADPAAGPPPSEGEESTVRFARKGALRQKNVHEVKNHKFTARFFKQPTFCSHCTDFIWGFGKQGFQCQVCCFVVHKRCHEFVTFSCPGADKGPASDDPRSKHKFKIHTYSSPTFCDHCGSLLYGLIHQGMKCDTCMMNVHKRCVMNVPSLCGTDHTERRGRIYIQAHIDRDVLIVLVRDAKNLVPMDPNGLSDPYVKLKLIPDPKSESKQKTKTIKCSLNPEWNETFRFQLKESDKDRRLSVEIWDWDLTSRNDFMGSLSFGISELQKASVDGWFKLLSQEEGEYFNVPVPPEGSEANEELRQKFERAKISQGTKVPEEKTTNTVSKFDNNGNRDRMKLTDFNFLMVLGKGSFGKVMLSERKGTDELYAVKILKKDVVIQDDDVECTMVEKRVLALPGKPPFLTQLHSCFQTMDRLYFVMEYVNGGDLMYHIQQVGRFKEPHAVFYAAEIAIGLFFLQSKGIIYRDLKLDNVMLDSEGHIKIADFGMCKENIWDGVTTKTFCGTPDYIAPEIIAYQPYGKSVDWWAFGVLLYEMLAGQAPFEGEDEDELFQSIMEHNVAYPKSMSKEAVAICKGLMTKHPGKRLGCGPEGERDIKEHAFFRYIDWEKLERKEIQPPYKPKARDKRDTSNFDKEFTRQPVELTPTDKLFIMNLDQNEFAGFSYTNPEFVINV
Vascular endothelial growth factor receptor 2 (Homo sapiens), sequence (P35968 whole entry): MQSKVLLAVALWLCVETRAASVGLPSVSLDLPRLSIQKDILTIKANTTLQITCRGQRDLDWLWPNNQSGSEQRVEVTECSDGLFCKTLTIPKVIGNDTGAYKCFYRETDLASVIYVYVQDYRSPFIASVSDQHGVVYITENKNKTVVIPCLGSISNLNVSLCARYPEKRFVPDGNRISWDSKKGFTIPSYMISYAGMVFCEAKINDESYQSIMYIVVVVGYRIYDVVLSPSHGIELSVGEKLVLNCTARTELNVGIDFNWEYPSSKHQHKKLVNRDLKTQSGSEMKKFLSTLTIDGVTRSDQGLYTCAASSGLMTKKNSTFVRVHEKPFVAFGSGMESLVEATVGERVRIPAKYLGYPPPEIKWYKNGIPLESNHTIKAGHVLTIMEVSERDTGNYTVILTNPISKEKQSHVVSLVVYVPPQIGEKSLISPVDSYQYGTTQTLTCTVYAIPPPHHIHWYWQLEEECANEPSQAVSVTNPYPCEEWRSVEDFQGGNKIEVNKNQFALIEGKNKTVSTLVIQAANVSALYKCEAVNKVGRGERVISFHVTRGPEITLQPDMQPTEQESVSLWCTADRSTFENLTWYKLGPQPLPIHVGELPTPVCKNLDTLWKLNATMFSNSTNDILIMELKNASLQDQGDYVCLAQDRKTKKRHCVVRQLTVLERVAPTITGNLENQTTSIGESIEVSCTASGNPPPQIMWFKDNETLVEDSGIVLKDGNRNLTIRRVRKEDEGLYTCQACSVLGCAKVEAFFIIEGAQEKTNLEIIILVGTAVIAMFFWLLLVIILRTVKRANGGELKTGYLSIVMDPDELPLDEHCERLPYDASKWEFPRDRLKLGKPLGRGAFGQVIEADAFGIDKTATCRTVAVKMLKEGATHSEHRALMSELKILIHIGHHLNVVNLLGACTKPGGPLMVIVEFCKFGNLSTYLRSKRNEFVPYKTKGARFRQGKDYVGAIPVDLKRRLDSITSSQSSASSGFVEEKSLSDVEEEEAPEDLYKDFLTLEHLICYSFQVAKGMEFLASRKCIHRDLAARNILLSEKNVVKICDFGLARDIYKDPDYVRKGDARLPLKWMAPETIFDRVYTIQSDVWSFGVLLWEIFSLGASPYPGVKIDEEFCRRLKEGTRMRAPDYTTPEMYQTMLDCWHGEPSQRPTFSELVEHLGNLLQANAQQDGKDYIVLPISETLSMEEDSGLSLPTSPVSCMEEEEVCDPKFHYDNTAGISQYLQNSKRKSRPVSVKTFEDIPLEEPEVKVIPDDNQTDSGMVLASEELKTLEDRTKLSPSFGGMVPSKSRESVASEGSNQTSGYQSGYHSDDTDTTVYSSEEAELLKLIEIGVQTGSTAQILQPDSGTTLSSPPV
Mitogen-activated protein kinase kinase kinase kinase 1 (Homo sapiens), sequence (Q92918 whole entry, looked up): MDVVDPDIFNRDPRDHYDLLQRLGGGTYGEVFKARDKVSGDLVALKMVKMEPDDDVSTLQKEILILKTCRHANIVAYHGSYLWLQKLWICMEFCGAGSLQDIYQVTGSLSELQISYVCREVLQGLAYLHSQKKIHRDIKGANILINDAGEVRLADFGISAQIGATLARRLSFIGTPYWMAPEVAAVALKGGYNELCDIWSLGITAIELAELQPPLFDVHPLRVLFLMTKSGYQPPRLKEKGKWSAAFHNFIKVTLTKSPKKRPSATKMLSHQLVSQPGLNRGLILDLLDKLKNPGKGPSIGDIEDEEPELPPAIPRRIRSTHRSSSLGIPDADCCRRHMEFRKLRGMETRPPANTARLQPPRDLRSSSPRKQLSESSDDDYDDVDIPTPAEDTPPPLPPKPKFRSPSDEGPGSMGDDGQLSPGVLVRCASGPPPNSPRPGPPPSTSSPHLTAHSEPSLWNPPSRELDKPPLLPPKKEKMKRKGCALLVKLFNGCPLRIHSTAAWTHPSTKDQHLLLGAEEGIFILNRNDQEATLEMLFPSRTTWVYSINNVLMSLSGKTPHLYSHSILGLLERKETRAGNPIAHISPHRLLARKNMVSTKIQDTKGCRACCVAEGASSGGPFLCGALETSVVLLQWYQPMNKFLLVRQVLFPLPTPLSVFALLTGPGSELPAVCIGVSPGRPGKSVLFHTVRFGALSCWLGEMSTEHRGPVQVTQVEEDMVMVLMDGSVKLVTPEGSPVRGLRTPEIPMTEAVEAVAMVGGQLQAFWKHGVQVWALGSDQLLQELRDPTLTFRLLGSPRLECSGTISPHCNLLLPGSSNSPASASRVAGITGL
MAP kinase-activated protein kinase 2 (Homo sapiens), sequence (P49137 whole entry, looked up): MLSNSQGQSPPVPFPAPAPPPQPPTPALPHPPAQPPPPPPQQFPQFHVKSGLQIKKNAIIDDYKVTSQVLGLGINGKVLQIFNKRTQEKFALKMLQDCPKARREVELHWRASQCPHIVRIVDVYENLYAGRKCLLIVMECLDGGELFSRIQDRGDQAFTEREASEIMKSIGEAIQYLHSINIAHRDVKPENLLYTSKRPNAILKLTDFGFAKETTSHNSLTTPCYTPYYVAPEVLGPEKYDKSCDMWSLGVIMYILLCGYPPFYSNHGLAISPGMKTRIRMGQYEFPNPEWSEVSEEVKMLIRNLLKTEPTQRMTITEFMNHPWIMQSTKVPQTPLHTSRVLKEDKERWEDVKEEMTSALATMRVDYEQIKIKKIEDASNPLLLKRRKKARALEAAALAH

- inhibition [1]: 0%
- inhibition [2]: 6%
- fold change (FC) [3]: 0
Structure (SMILES): CNC(=O)c1ccccc1Oc1nc(Nc2cc(OC)c(OC)c(OC)c2)ncc1Br

- inhibition [4]: 0%
- inhibition [5]: 5%
- inhibition [6]: 3%
- fold change (FC) [7]: 0.21
Structure (SMILES): O=C(N[C@@H](C1CC1)C(F)(F)F)c1cc(-c2cnn3cc(-c4ccc(F)cc4)cnc23)cs1

- inhibition [8]: 0%
- inhibition [10]: 0%
- fold change (FC) [11]: 0.01
- fold change (FC) [12]: 0.39
Structure (SMILES): CC(C)[C@H](NC(=O)c1cc(-c2cnn3cc(-c4ccc(OCCN5CCCCC5)cc4)cnc23)cs1)C(F)(F)F
- inhibition [9]: 22%
